From ChEMBL document CHEMBL5108044, “Discovery of a Novel Potent STAT3 Inhibitor HP590 with Dual p-Tyr705/Ser727 Inhibitory Activity for Gastric Cancer Treatment” (J Med Chem, 2022)
pIC50: −log10 of the molar value.

Experiments:
[1] = Inhibition of ATP production in human MKN-45 cells incubated for 20 to 24 hrs by ATP assay kit method; type: functional, cell-based
[2] = biological target: Signal transducer and activator of transcription 3 (Homo sapiens, UniProt P40763); assay: Inhibition of STAT3 in human AGS cells assessed as downregulation of cyclin D1 expression incubated up to 24 hrs by western blot analysis; type: cell-based; settings: dose <= 40.0 nM, DDE = dose-dependent effect
Chain of Signal transducer and activator of transcription 3 (P40763 whole entry): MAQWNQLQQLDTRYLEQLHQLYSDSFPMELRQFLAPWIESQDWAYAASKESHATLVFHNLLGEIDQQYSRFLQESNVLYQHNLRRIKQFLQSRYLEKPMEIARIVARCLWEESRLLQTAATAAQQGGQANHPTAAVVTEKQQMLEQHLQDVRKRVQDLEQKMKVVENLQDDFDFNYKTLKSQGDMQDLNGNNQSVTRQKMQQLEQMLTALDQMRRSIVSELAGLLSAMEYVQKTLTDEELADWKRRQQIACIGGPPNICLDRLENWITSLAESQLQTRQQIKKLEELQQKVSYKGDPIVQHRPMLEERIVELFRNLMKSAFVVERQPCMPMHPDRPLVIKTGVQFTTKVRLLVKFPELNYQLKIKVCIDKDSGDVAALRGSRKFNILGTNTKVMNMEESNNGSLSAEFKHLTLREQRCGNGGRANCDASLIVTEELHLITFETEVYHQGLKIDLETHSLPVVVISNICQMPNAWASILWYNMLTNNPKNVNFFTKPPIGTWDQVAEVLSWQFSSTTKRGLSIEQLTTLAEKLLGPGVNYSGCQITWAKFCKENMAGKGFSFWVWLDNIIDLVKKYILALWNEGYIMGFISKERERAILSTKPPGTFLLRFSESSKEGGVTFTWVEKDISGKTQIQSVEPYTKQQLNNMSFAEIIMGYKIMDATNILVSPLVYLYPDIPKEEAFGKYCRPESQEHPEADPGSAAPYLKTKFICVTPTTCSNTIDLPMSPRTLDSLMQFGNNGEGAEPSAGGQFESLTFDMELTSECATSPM

[3] = system: MKN-45; assay: Induction of apoptosis in human MKN-45 cells assessed as viable cells at 20 nM incubated for 48 hrs by FITC-annexin V/propidium iodide staining based flow cytometry (reference value: 68%); type: functional; settings: read-out: Activity
[4] = system: AGS; assay: Induction of apoptosis in human AGS cells assessed as necrotic cells 20 nM incubated for 48 hrs by FITC-annexin V/propidium iodide staining based flow cytometry (reference value: 2.70%); type: functional
[5] = Cmax in ICR mouse plasma at 1 mg/kg, iv measured up to 24 hrs by LC-MS/MS analysis; type: ADME, organism-based; design: time < 24 hrs, dose 1 mg/kg, route iv
[6] = Clearance in ICR mouse plasma at 1 mg/kg, iv measured up to 24 hrs by LC-MS/MS analysis; type: ADME, organism-based
[7] = Toxicity in […] mouse xenografted with human MKN-45 cells assessed as lung damage at 25 to 50 mg/kg, po qd administered for 5 weeks by H and E staining based analysis; type: organism-based; settings: in vivo, 840 h, dose 25-50 mg/kg

- pIC50 [1]: 7.61
- inhibition [2]: Dde
- Cmax [5]: 0.666 µg/mL
- clearance [6]: 0.44 L/h/kg
Compound: O=C(c1ccc(-c2noc(-c3ccc(C(F)(F)F)cc3)n2)cc1)N1CCN(Cc2ccc(OCC(F)(F)F)cc2)CC1
- viability at 0.02 µM [3]: 60.7%
- Activity [4]: 0.8%
- Activity [7]: Non-Toxic
